{"source": "paper PMC10609273", "about": "“Radiosynthesis and Early Evaluation of a Positron Emission Tomography Imaging Probe [^18F]AGAL Targeting Alpha-Galactosidase A Enzyme for Fabry Disease” (Molecules, 2023)", "type_in_all_cases": "in vitro ADME", "key": {"[1]": {"assay": "Bidirectional permeability in Caco-2 cells", "details": "human, Caco-2, 5 µM, alone; for efflux ratio at 60 min, 5 µM: read-out: Ratio (B/A), efflux ratio", "description": "The Caco-2 cell culture and bidirectional permeability assays used in the study were adapted from previous studies at Takeda. Briefly, Caco-2 cells were obtained from American Type Culture Collection (ATCC) (Manassas, VA, USA) and were cultured in 175 cm^2 tissue culture T-flasks (Corning Life Sciences, Corning, NY, USA). For bidirectional permeability assays, cells were plated onto Costar 24-well culture plates (0.33 cm^2/well, […] (Corning Life Sciences, Corning, NY, USA) by adding 1 × 10^5 cells suspended in 0.2 mL of culture medium (Dulbecco’s modified Eagle’s medium [DMEM] with 0.1 mM non-essential amino acids, 2 mM L-glutamine, 4.5 g/L glucose, and 10% fetal bovine serum [FBS]) to the upper chamber of each well of the 24-well transwell plate. Cell-free culture medium (40 mL) was added to the lower chamber reservoir (Corning Life Sciences, Corning, NY, USA). The transwell plates were then incubated at 37 °C in an atmosphere of 5% CO2 for 25 days to ensure complete enterocyte-like differentiation of the cells, and the culture medium was changed every three to four days during the incubation period. Cell monolayers with transepithelial electrical resistance (TEER) values > 250 ohms × cm^2 were used for the bidirectional permeability assays.\nAll chemicals and reagents including control compounds were purchased from commercial sources such as Sigma-Aldrich or synthesized in house (pevonedistat and LY335979). Bidirectional transport studies were performed at 37 °C. Before each experiment, the confluent cell monolayers on transwell inserts were washed and equilibrated for 30 min with transport media (Hank’s Balanced Salt Solution [HBSS] containing 25 mM 4-(2-hydroxyethyl)-1-piperazineethanesulfonic acid [HEPES] and 10 mM glucose, pH 7.4 or 6.5). The bidirectional permeability of 5 µM of the cyclohexane derivative was assessed alone or in the presence of 5 µM LY335979, 5 µM K0143, or 10 µM Elacridar to inhibit P-gp, BCRP, and both efflux transporters, respectively. Additionally, the bi-directional permeability of 5 µM solutions of nadolol (low permeable control marker), minoxidil (high permeable marker), propranolol (high permeable marker), and pevonedistat (efflux transporter control) was also assessed. The experiment was initiated by adding a solution containing the test compounds and LY335979 to either the apical (for apical-to-basolateral [A-to-B] transport) or basolateral (for basolateral-to-apical [B-to-A] transport) compartment. Lucifer yellow (50 µM) was added to each donor chamber in the experiment to serve as a paracellular transport control and to monitor cell monolayer integrity. The apical volume was 0.2 mL and the basolateral volume was 1.0 mL. Bovine serum albumin (BSA, Sigma Aldrich) (5%) was added to the transport media on the receiver side to prevent non-specific binding of the test compound to the polystyrene well. After the addition of test compound into the donor side, […] of the receiving solution were withdrawn from the receiver side at 30 and 60 min. A […] of fresh transport media was immediately added to the receiver side at 30 and 60 min. The samples were placed into 96-well black plates (PerkinElmer Life Sciences, Boston, MA, USA) for fluorescence measurement (excitation at 450 nm and emission at 535 nm). After this measurement, the amounts of cyclohexane derivative and control compounds in each sample were quantified with liquid chromatography–mass spectrometry (LC–MS). The time course of drug transported across cell monolayers was analyzed to determine the time and rate of steady-state flux. The transport rate (total amount of drug present in the receiver chamber per unit time), Papp, and efflux ratio were calculated as described in Equations (4) and (5). […]"}, "[2]": {"assay": "Plasma stability study, human", "details": "pooled plasma, 37 °C, read-out: Plasma Half-Life, t1/2", "description": "(§1) Briefly, plasma stability was assessed by incubating compounds in the presence of human (pooled) and mouse (pooled) plasma (Bioreclamation, Westbury, NY, USA). All chemicals and reagents including control compounds were purchased from commercial sources such as Sigma-Aldrich or Toronto Research Chemicals. Plasma incubations were conducted by placing plasma (95 μL) in a 96-well microtiter plate and warming to 37 °C for 5 min. The reaction was initiated with the addition of the test article (5 μL of 20 μM), totaling 100 μL in incubation volume. At 0, 15, 30, 60, and 120 min time points, the reactions were terminated with the addition of acetonitrile-containing carbutamide (as an internal standard). The terminated samples were then centrifuged at 2 °C to pellet the protein, and the supernatant was injected onto an LC–MS. The test article was monitored for loss over time and the t1/2 was determined."}, "[3]": {"assay": "Plasma stability study, mouse", "details": "mouse, pooled plasma, 37 °C, read-out: Plasma Half-Life, t1/2", "description": "as §1"}, "[4]": {"assay": "In vitro liver microsomal metabolism study, human", "details": "human liver microsomes", "description": "(§2) Metabolic stability was assessed by incubating compounds in the presence of human, rat, and mouse liver microsomal fractions (Xenotech, Kansas City, KS, USA). All chemicals and reagents, including control compounds, were purchased from commercial sources such as Sigma-Aldrich (St. Louis, MO, USA) or Toronto Research Chemicals (North York, ON, Canada). Liver microsomal incubations were conducted with 100 mM phosphate buffer, 0.5 mg/mL of liver microsomal protein, 2 mM NADPH, 2.5 mM UDPGA, 3 mM MgCl2, alamethicin, and 1 μM test article for a total incubation volume of 80 µL. All reagents except the liver microsomes were mixed together and aliquoted (60 μL) into 96-well plates. The reaction was initiated by adding the microsomes (20 μL). At 0, 3, 7, 12, 20, and 30 min time points, the reactions were terminated with the addition of acetonitrile-containing carbutamide (as an internal standard). The terminated samples were then centrifuged at 2 °C to pellet the protein and the supernatant was injected onto an LC–MS. The test article was monitored for loss over time and the t1/2 was determined. The calculated t1/2 was then used as described below to determine the Eh (hepatic extraction ratio) for both human and rat.\n(§3) The intrinsic clearance (CLint), hepatic clearance (CLh), and hepatic extraction ratio (Eh) were calculated using the equations below. CLint = (0.693/t1/2 in vitro) × (mL incubation volume/mg microsomal protein) × (X mg of microsomal protein/gram of liver) × (Y g of liver/kg of body weight)(1) CLh = Q × CLint/Q + CLint(2) Eh = CLh/Q(3) where: • CLint = intrinsic clearance (calculated from microsomal incubations) • X = 40 for human, 41.5 for rat and 45 for mouse • Y = 21.4 for human, 40 for rat and 50 for mouse • t1/2 = half-life • CLh = hepatic clearance • Q = liver blood flow rate = 1.24 L/h/kg for human, 4.8 L/h/kg for rat, and 5.4 L/h/kg for mouse • Eh = hepatic extraction ratio • CLh = hepatic clearance"}, "[5]": {"assay": "In vitro liver microsomal metabolism study, rat", "details": "rat liver microsomes", "description": "as §2, §3"}, "[6]": {"assay": "In vitro liver microsomal metabolism study, mouse", "details": "mouse liver microsomes", "description": "as §2, §3"}}}
{"smiles": "NS(=O)(=O)OC[C@@H]1C[C@@H](n2ccc3c(N[C@H]4CCc5ccccc54)ncnc32)C[C@@H]1O", "note": "[Pevonedistat, reference compound]", "values": [{"measurement": "Papp A→B at 60 min, 5 µM", "setting": "[1]", "value": 3.37, "unit": "×10⁻⁶ cm/s"}, {"measurement": "Papp B→A at 60 min, 5 µM", "setting": "[1]", "value": 63.4, "unit": "×10⁻⁶ cm/s"}, {"measurement": "efflux ratio at 60 min, 5 µM", "setting": "[1]", "value": 18.8}]}
{"smiles": "CC(C)(C)NCC(O)COc1cccc2c1CC(O)C(O)C2", "note": "(stereo not shown) [Nadolol, reference compound]", "values": [{"measurement": "Papp A→B at 60 min, 5 µM", "setting": "[1]", "value": 0.36, "unit": "×10⁻⁶ cm/s"}, {"measurement": "Papp B→A at 60 min, 5 µM", "setting": "[1]", "value": 1.45, "unit": "×10⁻⁶ cm/s"}, {"measurement": "efflux ratio at 60 min, 5 µM", "setting": "[1]", "value": 4.1}]}
{"smiles": "CC(C)[N+](C)(CCOC(=O)C1c2ccccc2Oc2ccccc21)C(C)C", "note": "[Propantheline, reference compound]", "values": [{"measurement": "half-life at 1 µM", "setting": "[2]", "value": 7.22, "unit": "min"}, {"measurement": "half-life at 1 µM", "setting": "[3]", "value": 26, "unit": "min"}]}
{"smiles": "Nc1cc(N2CCCCC2)nc(N)[n+]1[O-]", "note": "[Minoxidil, reference compound]", "values": [{"measurement": "Papp A→B at 60 min, 5 µM", "setting": "[1]", "value": 7.81, "unit": "×10⁻⁶ cm/s"}, {"measurement": "Papp B→A at 60 min, 5 µM", "setting": "[1]", "value": 9.78, "unit": "×10⁻⁶ cm/s"}, {"measurement": "efflux ratio at 60 min, 5 µM", "setting": "[1]", "value": 1.3}]}
{"smiles": "CCOC(=O)[C@H](CCc1ccccc1)N[C@@H](C)C(=O)N1CCC[C@H]1C(=O)O", "note": "[Enalapril, reference compound]", "values": [{"measurement": "half-life at 1 µM", "setting": "[2]", "value": 283, "unit": "min"}, {"measurement": "half-life at 1 µM", "setting": "[3]", "value": 30.6, "unit": "min"}]}
{"smiles": "CC(C)NCC(O)COc1cccc2ccccc12", "note": "(stereo not shown) [Propranolol, reference compound]", "values": [{"measurement": "Papp A→B at 60 min, 5 µM", "setting": "[1]", "value": 43.7, "unit": "×10⁻⁶ cm/s"}, {"measurement": "Papp B→A at 60 min, 5 µM", "setting": "[1]", "value": 44.4, "unit": "×10⁻⁶ cm/s"}, {"measurement": "efflux ratio at 60 min, 5 µM", "setting": "[1]", "value": 1}]}
{"smiles": "COc1ccc2c(c1)[C@]13CCCC[C@@H]1[C@H](C2)N(C)CC3", "note": "[Dextromethorphan, reference compound]", "values": [{"measurement": "CLh", "setting": "[4]", "value": 14, "unit": "mL/min/kg"}, {"measurement": "Eh (hepatic extraction ratio)", "setting": "[4]", "value": 0.676}, {"measurement": "CLint scaled at 1 µM", "setting": "[4]; 1 μM, NADPH + UDPGA", "value": 43.2, "unit": "mL/min/kg"}, {"measurement": "CLh", "setting": "[5]", "value": 71.2, "unit": "mL/min/kg"}, {"measurement": "Eh (hepatic extraction ratio)", "setting": "[5]", "value": 0.889}, {"measurement": "CLint scaled at 1 µM", "setting": "[5]; 1 μM, NADPH + UDPGA", "value": 642, "unit": "mL/min/kg"}, {"measurement": "CLh", "setting": "[6]", "value": 77.3, "unit": "mL/min/kg"}, {"measurement": "Eh (hepatic extraction ratio)", "setting": "[6]", "value": 0.860}, {"measurement": "CLint scaled at 1 µM", "setting": "[6]; 1 μM, NADPH + UDPGA", "value": 552, "unit": "mL/min/kg"}]}
